According to ChEMBL document CHEMBL5212743, “Selectivity Literature for EUbOPEN Chemogenomics Library wave 3” (2023):
Numbering of substitutions follows the chain as printed.

Legend:
Conditions in all cases: at 100 nM
[1] = system: Receptor-type tyrosine-protein kinase FLT3 (Homo sapiens), P36888 [UNDEFINED MUTATION]; assay: (§1) Selectivity interaction (KinomeScan (DiscoverX)) EUB0000138c FLT3
[2] = system: T1, Receptor-type tyrosine-protein kinase FLT3 (Homo sapiens), P36888 [D835V]; assay: as §1
T1 sequence (whole entry): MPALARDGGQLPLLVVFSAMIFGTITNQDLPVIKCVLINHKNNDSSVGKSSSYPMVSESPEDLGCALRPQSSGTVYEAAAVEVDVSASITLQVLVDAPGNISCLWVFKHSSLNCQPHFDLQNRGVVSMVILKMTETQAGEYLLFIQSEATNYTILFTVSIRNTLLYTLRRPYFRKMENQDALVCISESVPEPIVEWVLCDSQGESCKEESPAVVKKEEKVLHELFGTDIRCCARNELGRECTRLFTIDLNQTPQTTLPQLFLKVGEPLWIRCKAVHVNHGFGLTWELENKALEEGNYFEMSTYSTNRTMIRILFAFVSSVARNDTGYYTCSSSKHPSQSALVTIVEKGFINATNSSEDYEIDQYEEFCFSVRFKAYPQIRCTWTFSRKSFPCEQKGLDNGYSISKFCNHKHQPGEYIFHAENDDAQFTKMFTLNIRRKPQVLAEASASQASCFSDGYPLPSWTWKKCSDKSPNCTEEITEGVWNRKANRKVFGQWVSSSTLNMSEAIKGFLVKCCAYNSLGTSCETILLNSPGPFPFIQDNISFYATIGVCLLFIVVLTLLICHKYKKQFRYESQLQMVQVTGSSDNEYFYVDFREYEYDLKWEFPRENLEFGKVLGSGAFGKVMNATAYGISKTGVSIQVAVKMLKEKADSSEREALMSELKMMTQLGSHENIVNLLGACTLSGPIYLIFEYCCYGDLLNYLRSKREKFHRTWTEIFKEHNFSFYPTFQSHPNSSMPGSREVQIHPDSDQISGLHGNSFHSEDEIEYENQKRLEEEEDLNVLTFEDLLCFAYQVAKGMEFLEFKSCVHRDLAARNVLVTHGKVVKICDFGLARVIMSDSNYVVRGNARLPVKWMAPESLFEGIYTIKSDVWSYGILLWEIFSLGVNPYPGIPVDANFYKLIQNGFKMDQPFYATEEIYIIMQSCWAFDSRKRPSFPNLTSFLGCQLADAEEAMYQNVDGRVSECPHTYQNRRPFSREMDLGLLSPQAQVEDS

[3] = system: T2, Receptor-type tyrosine-protein kinase FLT3 (Homo sapiens), P36888 [D835Y]; assay: as §1
T2 sequence (whole entry): T1 sequence (whole entry) with V835Y

[4] = system: T3, Receptor-type tyrosine-protein kinase FLT3 (Homo sapiens), P36888 [N841I]; assay: as §1
T3 sequence (whole entry): T1 sequence (whole entry) with V835D, N841I

[5] = system: Receptor-type tyrosine-protein kinase FLT3 (Homo sapiens), P36888 [D835H]; assay: as §1

- % of control [1]: 9%
- % of control [2]: 0.2%
- % of control [3]: 5.9%
- % of control [4]: 0%
- % of control [5]: 99.8%
Compound: CNC(=O)c1ccc(Nc2ncc(C(F)(F)F)c(NCc3nccnc3N(C)S(C)(=O)=O)n2)cc1 [DEFACTINIB]
